From patent US20130197089A1, “COMPOSITIONS FOR THE TREATMENT OF ACTINIC KERATOSIS” (DOLORGIET GMBH & CO. KG, priority 2012, published 2013)

Experiments:
[1] = test system: actinic keratosis lesions; assay: Preliminary study: 5% ibuprofen gel vs 3% diclofenac gel in patients with actinic keratosis; conditions: for Development of new lesions during treatment: 90 days of treatment; for Average number of lesions at the start of the study: baseline; for Average number of lesions (total): all areas; for Severity of the lesions (BSI score): during the 90 days of treatment; for Investigator global improvement index (IGII): scale -2 to +4
Protocol: The study was performed according to the relevant criteria and was approved by the ethics commission of the dermatological society of Slovakia.
(§1) The application frequency was twice a day. The success of the treatment was evaluated after 30, 60 and 90 days.
(§2) When included in the study, the severity of the lesions was evaluated according to the so-called BSI (baseline severity index) score from 0 to 3. Patients having a BSI score of 1 and 2 were exclusively included in the study.
BSI score (baseline severity index score 1-3) • 0=no actinic keratosis (AK) visible • 1=clearly visible lesion • 2=many small, moderately thick lesions or a few large scaly lesions visible • 3=many thick hypertrophic lesions that are clearly visible and palpable with clear bounds.
(§3) The main target parameters within the scope of effectiveness were the total number of lesions in the treatment area and the IGII (investigator global improvement index) score from −2 to +4. From round 1, the evaluations were always done in comparison with the preliminary round.
(§4) IGII (investigator global improvement index) • −2 significant worsening • −1 slight worsening • 0 unchanged • 1 slight improvement • 2 improvement • 3 significant improvement • 4 complete healing
The IGII was measured between each two rounds.

[2] = test system: actinic keratosis lesions; assay: Second study: 10% ibuprofen gel vs 3% diclofenac gel in patients with actinic keratosis; conditions: for Average number of lesions at the start of the study: baseline; for Average IGII at the end of the treatment time: all areas; for Average IGII at the end of the treatment time / Investigator global improvement index (IGII): scale -2 to +4
Protocol: as §1, §2, §3, §4
The design of the study was the same as that of the first study.

[3] = cited from earlier work
[4] = 5% ibuprofen gel or 3% diclofenac gel
[5] = Face, 90 days, 5% ibuprofen gel or 3% diclofenac gel twice a day
[6] = Face, 5% ibuprofen gel or 3% diclofenac gel
[7] = Forehead, 90 days, 5% ibuprofen gel or 3% diclofenac gel twice a day
[8] = Forehead, 5% ibuprofen gel or 3% diclofenac gel twice a day, 12 patients per group
[9] = Hands, 90 days, 5% ibuprofen gel or 3% diclofenac gel twice a day
[10] = Hands, 5% ibuprofen gel or 3% diclofenac gel
[11] = Scalp, 90 days, 5% ibuprofen gel or 3% diclofenac gel twice a day
[12] = Scalp, 5% ibuprofen gel or 3% diclofenac gel
[13] = after 90 days of treatment, 5% ibuprofen gel or 3% diclofenac gel twice a day
[14] = start of study, 5% ibuprofen gel or 3% diclofenac gel
[15] = Face, 90 days, 10% ibuprofen gel or 3% diclofenac gel
[16] = Face, 10% ibuprofen gel or 3% diclofenac gel
[17] = Forehead, 90 days, 10% ibuprofen gel or 3% diclofenac gel
[18] = Forehead, 10% ibuprofen gel or 3% diclofenac gel, 6 patients per group
[19] = Hands, 90 days, 10% ibuprofen gel or 3% diclofenac gel
[20] = Hands, 10% ibuprofen gel or 3% diclofenac gel
[21] = 90 days, 10% ibuprofen gel or 3% diclofenac gel
[22] = beginning of the treatment, 10% ibuprofen gel or 3% diclofenac gel
[23] = end of the 90 days of treatment, 10% ibuprofen gel or 3% diclofenac gel
[24] = Forehead, V0 (start of the study)

## O=C(O)Cc1ccccc1Nc1c(Cl)cccc1Cl [Diclofenac, diclofenac]
[1]; [4]
  Development of new lesions during treatment: None of the patients developed new lesions
  Severity of the lesions (BSI score): remained virtually unchanged
[1]; [5]
  Average number of lesions after 90 days of treatment: 5.5
[1]; [6]
  Average number of lesions at the start of the study: 7
[1]; [7]
  Average number of lesions after 90 days of treatment: 5.3
[1]; [8]
  Average number of lesions at the start of the study: 7.1
[1]; [9]
  Average number of lesions after 90 days of treatment: 17.1
[1]; [10]
  Average number of lesions at the start of the study: 18.1
[1]; [11]
  Average number of lesions after 90 days of treatment: 11.5
[1]; [12]
  Average number of lesions at the start of the study: 15.8
[1]; [13]
  Average number of lesions (total): 39.4
[1]; [14]
  Average number of lesions (total): 48
[1]; during the study, topical 5% ibuprofen gel or 3% diclofenac gel twice a day, 90 days
  Undesirable side effects: No undesirable side effects
[1]; topical 5% ibuprofen gel or 3% diclofenac gel twice a day, 90 days
  Tolerability of the therapy: well tolerated
[2]; 10% ibuprofen gel or 3% diclofenac gel, 90 days topical
  Tolerability: very good
[2]; [15]
  Average number of lesions after 90 days of treatment: 6.2
[2]; [16]
  Average number of lesions at the start of the study: 12.3
[2]; [17]
  Average number of lesions after 90 days of treatment: 4.2
[2]; [18]
  Average number of lesions at the start of the study: 7.5
[2]; [19]
  Average number of lesions after 90 days of treatment: 8.8
[2]; [20]
  Average number of lesions at the start of the study: 17
[2]; [21]
  Average IGII at the end of the treatment time: 2.29
[2]; [22]
  Total number of lesions: 36.8
[2]; [23]
  Total number of lesions: 19.2

## CC(C)Cc1ccc(C(C)C(=O)O)cc1 (stereo not drawn) [Ibuprofen, ibuprofen]
[1]; [4]
  Development of new lesions during treatment: None of the patients developed new lesions
  Severity of the lesions (BSI score): remained virtually unchanged
[1]; [5]
  Average number of lesions after 90 days of treatment: 4.8
[1]; Face, V0 (start of the study)
  Investigator global improvement index (IGII): 0
[1]; Face, V3 (after 90 days of treatment), 5% ibuprofen gel or 3% diclofenac gel
  Investigator global improvement index (IGII): 1.38
[1]; [6]
  Average number of lesions at the start of the study: 5.7
[1]; [7]
  Average number of lesions after 90 days of treatment: 4
[1]; [24]
  Investigator global improvement index (IGII): 0
[1]; Forehead, V3 (after 90 days of treatment), 5% ibuprofen gel or 3% diclofenac gel
  Investigator global improvement index (IGII): 1.33
[1]; [8]
  Average number of lesions at the start of the study: 4.6
[1]; Hand, V0 (start of the study)
  Investigator global improvement index (IGII): 0
[1]; Hand, V3 (after 90 days of treatment), 5% ibuprofen gel or 3% diclofenac gel
  Investigator global improvement index (IGII): 1
[1]; [9]
  Average number of lesions after 90 days of treatment: 16.9
[1]; [10]
  Average number of lesions at the start of the study: 18.5
[1]; [11]
  Average number of lesions after 90 days of treatment: 6
[1]; Scalp, V0 (start of the study)
  Investigator global improvement index (IGII): 0
[1]; Scalp, V3 (after 90 days of treatment), 5% ibuprofen gel or 3% diclofenac gel
  Investigator global improvement index (IGII): 1
[1]; [12]
  Average number of lesions at the start of the study: 6.3
[1]; [13]
  Average number of lesions (total): 31.7
[1]; [14]
  Average number of lesions (total): 35.1
[1]; human, in vivo
  Tolerability of the therapy: well tolerated
  Undesirable side effects: No undesirable side effects
[2]; 10% ibuprofen gel or 3% diclofenac gel, 90 days
  Therapeutic result in treating slight and moderate keratosis lesions (in words): pronounced effectiveness
[2]; [15]
  Average number of lesions after 90 days of treatment: 0.7
[2]; Face, V0 (start of the study)
  Investigator global improvement index (IGII): 0
[2]; Face, V3 (after 90 days of treatment), 10% ibuprofen gel or 3% diclofenac gel
  Investigator global improvement index (IGII): 3.7
[2]; [16]
  Average number of lesions at the start of the study: 5.2
[2]; [17]
  Average number of lesions after 90 days of treatment: 0.3
[2]; [24]
  Investigator global improvement index (IGII): 0
[2]; Forehead, V3 (after 90 days of treatment), 10% ibuprofen gel or 3% diclofenac gel
  Investigator global improvement index (IGII): 3.8
[2]; [18]
  Average number of lesions at the start of the study: 3.3
[2]; Hand, V0 (start of the study)
  Investigator global improvement index (IGII): 0
[2]; Hand, V3 (after 90 days of treatment), 10% ibuprofen gel or 3% diclofenac gel
  Investigator global improvement index (IGII): 3.6
[2]; [19]
  Average number of lesions after 90 days of treatment: 2.7
[2]; [20]
  Average number of lesions at the start of the study: 9.5
[2]; [21]
  Average IGII at the end of the treatment time: 3.7
[2]; [22]
  Total number of lesions: 18
[2]; [23]
  Total number of lesions: 3.7
[2]; end of the 90 days of treatment, 10% ibuprofen gel, six patients in group
  Patients completely freed from the optically visible lesions: three
[2]; human, in vivo
  Tolerability: very good
[3]; systemic effect
  Plasma level necessary for a general systemic effect: ≥ 10000 ng/mL
[3]; topical application
  Plasma level reached in topical application: about 2 μg/ml
